Results on five compounds are retold here after patent US6676932B2, “Ultraviolet absorbent, photostabilizer, ultraviolet ray-absorbing composition, photostabilized composition and external preparation for skin” (Shiseido Co., Ltd., priority 2001, dated 2004).

What all share (format): physicochemical
The nature of data set [1]: Dye stabilization effect under daylight exposure (Test Examples 6-91). Particulars: photostabilizer 0.05 wt %, daylight exposure (80 MJ). The arrangement: key to Δ E: color difference ΔE in Lab vs. color before daylight exposure; key to Appearance (visual determination): ◯: no change; Δ: almost no change; x: change. The procedure:
For observation of the change of the appearance of each test sample (determination based on visual observation) and the measurement of color difference (ΔE) before and after daylight exposure (80 MJ), the test sample was prepared.
(§1) With a spectrophotometer, the color was measured on the Lab coordinate system, to calculate the color difference on the basis of the color before daylight exposure. More specifically, the color difference (ΔE) was calculated on the basis of the measured values (L1, a1, b1) before daylight exposure.

Data set [2] in a line: Stabilization effect on perfume under daylight exposure (Test Examples 92 to 181). The arrangement: key: ◯: no change; Δ: almost no change; x: change. Particulars: daylight exposure (80 MJ). The protocol: Each test sample was prepared for observation of the change of the odor of the test sample (determined by perfume coordinator) before and after daylight exposure (80 MJ).

Data set [3] in a line: Drug stabilization effect under daylight exposure (Test Examples 182 to 211). The arrangement: key to Appearance (visual determination): ◯: no change; Δ: almost no change; x: change. Particulars: photostabilizer 0.05 wt %, daylight exposure (80 MJ); for Remaining ratio (%): liquid chromatography. The procedure: (§2) For observation of the change of the appearance of each test sample (determination based on visual observation) and the measurement of the remaining ratio by liquid chromatography before and after daylight exposure (80 MJ), the test sample was prepared.

A short description of data set [4]: Dye stabilization effect in blend with sequestering agents (Test Examples 212 to 275). The settings on record: daylight exposure (80 MJ). The protocol:
Each test sample was prepared for observation of the change of the appearance of each test sample (determined visually) and measurement of the color difference (ΔE) before and after daylight exposure (80 MJ).
as §1

Data set [5] is described as follows: Drug stabilization effect blended with sequestering agent (Test Examples 372 to 391). Details: key to Appearance (visual determination): ◯: no change; Δ: almost no change; x: change. Particulars: sequestering agent blend amount 0.03, photostabilizer 0, daylight exposure (80 MJ). The procedure:
Then, the photostabilization effect of the pyridazine derivative in combination with sequestering agents on each drug and the change of the appearance of each composition were examined, by using the following formulation for assessment.
as §2

The mark [6] stands for this setting: dye Blue 1 (Brilliant Blue FCF) 0.0001 wt %.
[7] abbreviates: dye Green 3 (Fast Green FCF) 0.001 wt %.
[8] abbreviates: dye Red 227 (Acid Fuchsine D) 0.0001 wt %.
The mark [9] stands for this setting: dye Yellow 5 (Sunset Yellow FCF) 0.001 wt %.
Where [10] appears, read: dyes Red 106 (Acid red) 0.00001 + Yellow 203 (Quinoline Yellow WS) 0.0001 wt %.
Where [11] appears, read: base perfume Fruity, photostabilizer 0.1 wt %.
Setting [12] is: base perfume Muge, photostabilizer 0.05 wt %.
Where [13] appears, read: base perfume Spicy, photostabilizer 0.2 wt %.
Setting [14] is: natural perfume Jasmine oil, photostabilizer 0.05 wt %.
Where [15] appears, read: synthetic perfume Rose oxide, photostabilizer 0.2 wt %.
The mark [16] stands for this setting: drug Dipotassium glycyrrhizinate 0.05 wt %.
Where [17] appears, read: dyes Red 213 (Rhodamine B) 0.00001 + Blue 1 (Brilliant Blue FCF) 0.00001 wt %.
Setting [18] is: dyes Red 227 (Acid Fuchsine D) 0.0001 + Yellow 5 (Sunset Yellow FCF) 0.0001 wt %.
[19] abbreviates: dyes Red 401 (Violanin R) 0.0001 + Blue 1 (Brilliant Blue FCF) 0.00001 wt %.
Setting [20] is: dyes Yellow 203 (Quinoline Yellow WS) 0.0001 + Yellow 5 (Sunset Yellow FCF) 0.0001 wt %.
The mark [21] stands for this setting: natural perfume Nelori oil, photostabilizer 0.1 wt %.
[22] abbreviates: synthetic perfume Limonene oil, photostabilizer 0.05 wt %.
[23] abbreviates: drug L-ascorbic acid 2-glucoside 2.0 wt %.
Where [24] appears, read: drug dibutylhydroxytoluene 0.01 wt %.
Setting [25] is: drug dl-α-tocopherol 2-L-ascorbic acid phosphate diester potassium salt 0.01 wt %.
The mark [26] stands for this setting: dye Blue 1 (Brilliant Blue FCF) 0.001, sequestering agent 0.05 alone, photostabilizer 0.
Where [27] appears, read: dye Red 227 (Acid Fuchsine D) 0.0001, sequestering agent 0.02 alone, photostabilizer 0.
Where [28] appears, read: drug Glycyrrhizinic acid dipotassium 0.05.
The mark [29] stands for this setting: drug L-ascorbic acid 2-glucoside 2.0.
Setting [30] is: drug dibutylhydroxy toluene 0.01.
The mark [31] stands for this setting: drug dl-α-tocopherol 2-L-ascorbic acid phosphate diester potassium salt 0.01.

With `Oc1nnccc1N1CCOCC1` [3-Hydroxy-4-morpholinopyridazine, 3-hydroxy-4-morpholinopyridazine], the “Appearance (visual determination)” value in data set [1] (setting [6]), in data set [1] (setting [7]), in data set [1] (setting [8]), in data set [1] (setting [9]), in data set [1] (setting [10]) and in data set [3] (setting [16]) was “◯” throughout. The “Δ E” value in data set [1] (setting [6]) is 1.26; in data set [1] (setting [7]) it was 0.48; in data set [1] (setting [8]), 0.60; in data set [1] (setting [9]), 0.62; in data set [1] (setting [10]), 0.80; in data set [4] (dyes Red 401 (Violanin R) 0.0001 + Blue 1 (Brilliant Blue FCF) 0.00001, no sequestering agent, photostabilizer blend amount 0.02), 1.34. Moreover, the “Δ E” value in data set [4] (dyes Red 401 (Violanin R) 0.0001 + Blue 1 (Brilliant Blue FCF) 0.00001, with ethylenediaminetetraacetate trisodium 0.03, photostabilizer blend amount 0.02) is listed as 0.91. Further, the odor determination entry in data set [2] (setting [11]), in data set [2] (setting [12]), in data set [2] (setting [13]), in data set [2] (setting [14]) and in data set [2] (setting [15]) was “◯” throughout. Moreover, the “Remaining ratio (%)” value in data set [3] (setting [16]) was determined as 99.2%.
As to `COc1ccc(C(=O)CC(=O)c2ccc(C(C)(C)C)cc2)cc1` [4-tert-Butyl-4′-methoxydibenzoylmethane, reference compound], the “Appearance (visual determination)” value in data set [1] (setting [6]), in data set [1] (setting [7]), in data set [1] (setting [8]), in data set [1] (setting [9]), in data set [1] (setting [10]) and in data set [1] (setting [17]) was “Δ” in each case. The “Appearance (visual determination)” value is on record as “Δ” in data set [1] (setting [18]); “Δ” in data set [1] (setting [19]); “◯” in data set [1] (setting [20]); “Δ” in data set [3] (setting [16]); “Δ” in data set [3] (setting [23]); “Δ” in data set [3] (setting [24]). The “Appearance (visual determination)” value in data set [3] (setting [25]) and in data set [3] (drug salicylic acid 0.1 wt %) was “Δ” throughout. In addition, the “Δ E” value was found to be 1.49 in data set [1] (setting [6]); 0.62 in data set [1] (setting [7]); 0.95 in data set [1] (setting [8]); 0.88 in data set [1] (setting [9]); 1.02 in data set [1] (setting [10]); 1.17 in data set [1] (setting [17]). In addition, the entries for the “Δ E” value in data set [1] (setting [18]), in data set [1] (setting [19]) and in data set [1] (setting [20]) were 0.80, 0.93 and 0.48, respectively. Moreover, the odor determination result in data set [2] (setting [11]) is “Δ”; in data set [2] (setting [12]), “Δ”; in data set [2] (base perfume Rose, photostabilizer 0.05 wt %), “Δ”; in data set [2] (setting [13]) it was “Δ”; in data set [2] (base perfume Woody, photostabilizer 0.1 wt %), “Δ”; in data set [2] (setting [14]), “Δ”. For the same compound, the odor determination entry in data set [2] (natural perfume Lavender oil, photostabilizer 0.1 wt %) is reported as “Δ”; in data set [2] (setting [21]) it was “Δ”; in data set [2] (natural perfume Rose oil, photostabilizer 0.05 wt %), “Δ”; in data set [2] (natural perfume Ylang ylang oil, photostabilizer 0.2 wt %), “Δ”; in data set [2] (synthetic perfume Citral, photostabilizer 0.1 wt %) it was “Δ”; in data set [2] (setting [22]), “Δ”. In addition, the odor determination result in data set [2] (synthetic perfume Linalool, photostabilizer 0.05 wt %) is “Δ”; in data set [2] (synthetic perfume Linalyl acetate, photostabilizer 0.1 wt %), “Δ”; in data set [2] (setting [15]), “Δ”. In addition, the “Remaining ratio (%)” value came out at 96.6% in data set [3] (setting [16]); 97.0% in data set [3] (setting [23]); 95.2% in data set [3] (setting [24]); 94.5% in data set [3] (setting [25]); 97.2% in data set [3] (drug salicylic acid 0.1 wt %).
Consider sodium metaphosphate, for which the “Δ E” value in data set [4] (setting [26]) is on record as 7.78; in data set [4] (dye Green 3 (Fast Green FCF) 0.001, sequestering agent 0.1 alone, photostabilizer 0), 1.77; in data set [4] (setting [27]), 1.37; in data set [4] (dye Yellow 5 (Sunset Yellow FCF) 0.0001, sequestering agent 0.03 alone, photostabilizer 0) it was 1.68; in data set [4] (dyes Red 227 (Acid Fuchsine D) 0.0001 + Yellow 203 (Quinoline Yellow WS) 0.0001, sequestering agent blend amount 0.02, photostabilizer 0), 3.01; in data set [4] (dyes Red 401 (Violanin R) 0.0001 + Green 3 (Fast Green FCF) 0.00001, sequestering agent blend amount 0.03, photostabilizer 0) it was 4.23. In data set [4] (dyes Yellow 203 (Quinoline Yellow WS) 0.0001 + Yellow 5 (Sunset Yellow FCF) 0.0001, sequestering agent blend amount 0.01, photostabilizer 0), the “Δ E” value worked out at 1.44. In addition, the “Appearance (visual determination)” value in data set [5] (setting [28]), in data set [5] (setting [29]) and in data set [5] (setting [30]) was “x” each time. The “Remaining ratio (%)” value came out at 85.8% in data set [5] (setting [28]), 85.2% in data set [5] (setting [29]) and 54.7% in data set [5] (setting [30]).
For the compound `O=C([O-])CN(CCO)CCN(CC(=O)[O-])CC(=O)[O-].[Na+].[Na+].[Na+]` [ethylenediaminehydroxyethyl trisodium triacetate], the “Δ E” value in data set [4] (setting [26]) was found to be 7.63; in data set [4] (setting [27]), 1.43; in data set [4] (dyes Red 106 (Acid Red) 0.00001 + Yellow 203 (Quinoline Yellow WS) 0.0001, sequestering agent blend amount 0.02, photostabilizer 0), 3.56; in data set [4] (dyes Red 213 (Rhodamine B) 0.00001 + Blue 1 (Brilliant Blue FCF) 0.00001, sequestering agent blend amount 0.03, photostabilizer 0), 3.85. Moreover, in data set [5] (setting [31]), the “Appearance (visual determination)” value was “x”. Further, the “Remaining ratio (%)” value in data set [5] (setting [31]) was found to be 70.1%.
`OCCNc1ccc(NCCO)nn1` [3,6-Bis(2-hydroxyethylamino)pyridazine, 3,6-bis(2-hydroxyethylamino)pyridazine]: the “Appearance (visual determination)” value in data set [1] (setting [6]), in data set [1] (setting [7]), in data set [1] (setting [8]), in data set [1] (setting [9]), in data set [1] (setting [20]) and in data set [3] (setting [16]) was “◯” throughout. The “Appearance (visual determination)” value in data set [3] (setting [23]) is on record as “◯”. Also, the “Δ E” value in data set [1] (setting [6]) is given as 1.38; in data set [1] (setting [7]) it was 0.63; in data set [1] (setting [8]), 0.64; in data set [1] (setting [9]), 0.66; in data set [1] (setting [20]), 0.47. Besides, the odor determination result in data set [2] (setting [11]), in data set [2] (setting [21]) and in data set [2] (setting [22]) was “◯” in each case. The “Remaining ratio (%)” value in data set [3] (setting [16]) and in data set [3] (setting [23]) was 98.8% in each case.
